Earlier results, collected in patent publication EP0523846A2, “1,4-Benzodiazepines with 5-membered heterocyclic rings” (MERCK & CO. INC., priority 1991, dated 1993).

Details: background statement citing Deschodt-Lanckman et al., Reg. Pept., 2, 15 (1981)

**Q.** For CSCC[C@H](NC(=O)[C@H](Cc1ccc(OS(=O)(=O)O)cc1)NC(=O)[C@@H](N)CC(=O)O)C(=O)NCC(=O)N[C@@H](Cc1c[nH]c2ccccc12)C(=O)N[C@@H](CCSC)C(=O)N[C@@H](CC(=O)O)C(=O)N[C@@H](Cc1ccccc1)C(N)=O [CCK-8s, H-Asp-Tyr(SO₃H)-Met-Gly-Trp-Met-Asp-Phe-NH₂], which half-life is on record?
**A.** less than 1 hour
